From ChEMBL document CHEMBL4406860, “Discovery of potent ureido tetrahydrocarbazole derivatives for cancer treatments through targeting tumor-associated macrophages” (Eur J Med Chem, 2019) come the findings set out here.

Data set [1] relates to RAW264.7. Put plainly: Increase in TNF-alpha production in mouse RAW264.7 cells at 50 uM incubated for 24 hrs by ELISA (reference value: 1133.56 +/- 46.61 pg/ml). The format is functional.
Data set [2] deals with RAW264.7. The data set can be described thus: Increase in TNF-alpha production in mouse RAW264.7 cells incubated for 24 hrs by ELISA. The class given is functional, cell-based. The conditions noted are these: RAW264.7, 24 h.
A short description of data set [3]: Increase in TNF-alpha production in mouse BMDM cells incubated for 24 hrs by ELISA. The format is functional, cell-based.
In data set [4] the test system is RAW264.7. The data set can be described thus: Induction of M1-phenotype associated markers in mouse RAW264.7 cells assessed as F4/80-MHC II expression incubated for 24 hrs by flow cytometry (reference value: 12.1 %). The format is functional.
Data set [5] has as its system RAW264.7. The data set can be described thus: Induction of M1-phenotype markers expression in mouse RAW264.7 cells assessed as increase in IL-1beta expression incubated for 1 hr by qRT-PCR. The format is functional, cell-based.
A short description of data set [6]: Toxicity in C57BL/6 mouse xenografted with mouse LLC cells assessed as effect on lungs at 5 mg/kg, ip administered every other day for 30 days by H and E staining based microscopic analysis. The class given is organism-based. The settings on record: in vivo, 720 h.
The subject of data set [7] is RAW264.7. The data set can be described thus: Cytotoxicity against mouse RAW264.7 cells assessed as reduction in cell viability at 1000 uM incubated for 24 hrs by CCK-8 assay. The format is cell-based. The conditions noted are these: raw264.7, 24 h.
The subject of data set [8] is RAW264.7. Put plainly: Induction of M1-phenotype markers expression in mouse RAW264.7 cells assessed as increase in iNOS expression incubated for 1 hr by qRT-PCR. The format is functional, cell-based.
In data set [9] the test system is Lewis lung carcinoma cell line. The data set can be described thus: Antitumor activity against mouse LLC cells xenografted in C57BL/6 mouse assessed as reduction in tumor weight at 5 mg/kg, ip administered every other day for 30 days. The class given is functional, organism-based.
Data set [10] relates to RAW264.7. The data set can be described thus: Inhibition of M2-phenotype associated markers in mouse RAW264.7 cells assessed as F4/80-CD206 expression in presence of IL4 incubated for 24 hrs by flow cytometry (reference value: 7.54 %). The class given is functional.
Data set [11] relates to RAW264.7. The data set can be described thus: Inhibition of M2-phenotype markers expression in mouse RAW264.7 cells assessed as decrease in IL-4 -induced CD206 expression incubated for 1 hr by qRT-PCR. The class given is functional, cell-based.
Data set [12] is described as follows: Toxicity in C57BL/6 mouse xenografted with mouse LLC cells assessed as effect on liver at 5 mg/kg, ip administered every other day for 30 days by H and E staining based microscopic analysis. The settings on record: in vivo, 720 h. The class given is organism-based.
Data set [13] concerns RAW264.7. Put plainly: Inhibition of M2-phenotype markers expression in mouse RAW264.7 cells assessed as decrease in IL-4 -induced in Fizz-1 expression incubated for 1 hr by qRT-PCR. The class given is functional, cell-based.
The test system of data set [14] is Lewis lung carcinoma cell line. Put plainly: Antitumor activity against mouse LLC cells xenografted in C57BL/6 mouse assessed as reduction in tumor volume at 5 mg/kg, ip administered every other day for 30 days. The format is functional, organism-based.
Data set [15] has as its system RAW264.7. The data set can be described thus: Inhibition of M2-phenotype markers expression in mouse RAW264.7 cells assessed as decrease in IL-4 -induced in Ym-1R expression incubated for 1 hr by qRT-PCR. The format is functional, cell-based.
The test system of data set [16] is RAW264.7. The data set can be described thus: Induction of M1-phenotype markers expression in mouse RAW264.7 cells assessed as increase in IL-12alpha expression incubated for 1 hr by qRT-PCR. The format is functional, cell-based.
In data set [17] the test system is Lewis lung carcinoma cell line. Put plainly: Antitumor activity against mouse LLC cells xenografted in C57BL/6 mouse assessed as reduction in tumor weight in prescence of anti-PD1 at 5 mg/kg, ip administered every other day for 30 days. The format is functional, organism-based.
The test system of data set [18] is RAW264.7. The data set can be described thus: Inhibition of M2-phenotype markers expression in mouse RAW264.7 cells assessed as decrease in IL-4 -induced in Arg-1 expression incubated for 1 hr by qRT-PCR. The class given is functional, cell-based.
In data set [19] the test system is Mus musculus. Put plainly: In vivo induction of M1-phenotype associated marker in C57BL/6 mouse xenografted with mouse LLC cells assessed as increase in F4/80-iNOS expression in presence of anti-PD1 at 5 mg/kg, ip administered every other day for 30 days by DAPI staining based immunofluorescence microscopic analysis. The format is functional, organism-based.
The test system of data set [20] is Mus musculus. The data set can be described thus: In vivo induction of M1-phenotype associated marker in C57BL/6 mouse xenografted with mouse LLC cells assessed as increase in F4/80-iNOS expression at 5 mg/kg, ip administered every other day for 30 days by DAPI staining based immunofluorescence microscopic analysis. The format is functional, organism-based.
Data set [21] relates to Mus musculus. The data set can be described thus: In vivo inhibition of M2-phenotype associated marker in C57BL/6 mouse xenografted with mouse LLC cells assessed as decrease in F4/80-CD206 expression at 5 mg/kg, ip administered every other day for 30 days by DAPI staining based immunofluorescence microscopic analysis. The format is functional, organism-based.
Data set [22] can be described thus: Toxicity in C57BL/6 mouse xenografted with mouse LLC cells assessed as effect on body weight in prescence of anti-PD1 (1 mg/kg) at 5 mg/kg, ip administered every other day for 30 days. The class given is organism-based. The settings on record: in vivo, 720 h.
Data set [23] can be described thus: Toxicity in C57BL/6 mouse xenografted with mouse LLC cells assessed as effect on body weight at 5 mg/kg, ip administered every other day for 30 days. The settings on record: in vivo, 720 h. The format is organism-based.
The test system of data set [24] is Lewis lung carcinoma cell line. The data set can be described thus: Antitumor activity against mouse LLC cells xenografted in C57BL/6 mouse assessed as reduction in tumor volume in prescence of anti-PD1 at 5 mg/kg, ip administered every other day for 30 days. The class given is functional, organism-based.
In data set [25] the test system is RAW264.7. Put plainly: Induction of M1-phenotype markers expression in mouse RAW264.7 cells assessed as increase in TNFalpha expression incubated for 1 hr by qRT-PCR. The format is functional, cell-based.
For data set [26], the system named is Mus musculus. Put plainly: In vivo inhibition of M2-phenotype associated marker in C57BL/6 mouse xenografted with mouse LLC cells assessed as decrease in F4/80-CD206 expression in presence of anti-PD1 at 5 mg/kg, ip administered every other day for 30 days by DAPI staining based immunofluorescence microscopic analysis. The format is functional, organism-based.

Molecules are shown by their SMILES. Activity calls are given as the source filed them. The rule behind the calls is not given here.

For the compound `O=C(Nc1ccc(Cl)c(C(F)(F)F)c1)NC1CCc2[nH]c3cccc(C(=O)N4CCOCC4)c3c2C1` (configuration not stated), the Activity in data set [1] turned out to be 4025.54 pg/mL.
`O=C(Nc1ccc(Cl)c(C(F)(F)F)c1)NC1CCc2[nH]c3cc(C(=O)NCCOCCO)ccc3c2C1` (configuration not stated): in data set [1], the Activity turned out to be 6968.79 pg/mL.
Still for that read-out and setting: as for `O=C(Nc1ccc(Cl)c(C(F)(F)F)c1)NC1CCc2[nH]c3cccc(C(=O)NCCOCCO)c3c2C1` (configuration not stated), the figure is 500.62 pg/mL; as for `O=C(Nc1ccc(Cl)c(C(F)(F)F)c1)NC1CCc2[nH]c3cc(C(=O)N4CCOCC4)ccc3c2C1` (configuration not stated), 6085.83 pg/mL; as for `O=C(Nc1ccc(Cl)c(C(F)(F)F)c1)NC1CCc2[nH]c3cccc(C(=O)NC4CC4)c3c2C1` (configuration not stated), 6427.32 pg/mL.
Turning to `O=C(Nc1ccc(Cl)c(C(F)(F)F)c1)NC1CCc2[nH]c3c(C(=O)NC4CC4)cccc3c2C1` (configuration not stated), the Activity in data set [1] amounted to 7730.01 pg/mL. Besides, the values for the EC50 in data set [2] and in data set [3] were 18.4 µM and 63.5 µM, respectively.
Take `O=C(Nc1ccc(Cl)c(C(F)(F)F)c1)NC1CCc2[nH]c3ccc(C(=O)NCCOCCO)cc3c2C1` (configuration not stated): the Activity in data set [1] was found to be 561.78 pg/mL.
Still for that read-out and setting: as for `O=C(Nc1ccc(Cl)c(C(F)(F)F)c1)NC1CCc2[nH]c3ccc(C(=O)NC4CC4)cc3c2C1` (configuration not stated), the figure is 4458.11 pg/mL; as for `CN1CCN(C(=O)c2ccc3[nH]c4c(c3c2)CC(NC(=O)Nc2ccc(Cl)c(C(F)(F)F)c2)CC4)CC1` (configuration not stated), 4935.9 pg/mL.
Take `O=C(Nc1ccc(Cl)c(C(F)(F)F)c1)NC1CCc2[nH]c3cc(C(=O)NCCO)ccc3c2C1` (configuration not stated): the Activity in [1] was determined as 4377.67 pg/mL.
Regarding `O=C(Nc1ccc(Cl)c(C(F)(F)F)c1)NC1CCc2[nH]c3cccc(-c4cnn(CCO)c4)c3c2C1` (configuration not stated), the Activity in data set [1] was found to be 6714.86 pg/mL. In addition, the EC50 stood at 13.4 µM in [2] and 20.9 µM in data set [3].
Consider `CC(C)NC(=O)c1ccc2c3c([nH]c2c1)CCC(NC(=O)Nc1ccc(Cl)c(C(F)(F)F)c1)C3` (configuration not stated), for which the Activity in [1] came out at 5566.34 pg/mL.
As for `Cn1cc(-c2cccc3[nH]c4c(c23)CC(NC(=O)Nc2ccc(Cl)c(C(F)(F)F)c2)CC4)cn1` (configuration not stated), the Activity in data set [4] is 24.4%; in data set [5], “Dose-dependent effect”; in data set [6], “Non-Toxic”; in data set [7], “Non-Toxic”; in data set [8] it was “Dose-dependent effect”; in data set [12], “Non-Toxic”. In addition, the Activity in data set [1] is 5994.12 pg/mL; in data set [16] it was “Dose-dependent effect”; in [22], “Non-Toxic”; in data set [23], “Non-Toxic”; in data set [25] it was “Dose-dependent effect”. Further, the outcome in [9], in data set [14], in [17], in [19], in data set [20] and in data set [21] was Active. The result in data set [24] and in [26] was Active. In addition, the “inhibition (INH)” value in [10] is 8.76%. Besides, the inhibition entry in [11], in data set [13], in data set [15] and in data set [18] was “Dose-dependent effect” throughout. In addition, the EC50 worked out at 17.2 µM in data set [2] and 18.9 µM in data set [3].
In data set [1], `O=C(Nc1ccc(Cl)c(C(F)(F)F)c1)NC1CCc2[nH]c3c(C(=O)N4CCOCC4)cccc3c2C1` (configuration not stated) registered an Activity of 4127.15 pg/mL.
Still for that read-out and setting: next, `Cn1cc(-c2ccc3c4c([nH]c3c2)CCC(NC(=O)Nc2ccc(Cl)c(C(F)(F)F)c2)C4)cn1` (configuration not stated): 3770.66 pg/mL; `O=C(Nc1ccc(Cl)c(C(F)(F)F)c1)NC1CCc2[nH]c3cc(C(=O)NC4CC4)ccc3c2C1` (configuration not stated): 6034.58 pg/mL.
Consider `O=C(Nc1ccc(Cl)c(C(F)(F)F)c1)NC1CCc2[nH]c3ccc(C(=O)N4CCOCC4)cc3c2C1` (configuration not stated), for which the Activity in data set [1] was 5510.03 pg/mL.
Regarding `O=C(Nc1ccc(Cl)c(C(F)(F)F)c1)NC1CCc2[nH]c3cc(-c4cnn(CCO)c4)ccc3c2C1` (configuration not stated), the Activity in data set [1] turned out to be 6043.84 pg/mL.
The same measure, in the same setting: as for `CN1CCN(C(=O)c2cccc3c4c([nH]c23)CCC(NC(=O)Nc2ccc(Cl)c(C(F)(F)F)c2)C4)CC1` (configuration not stated), the figure is 2506.98 pg/mL; as for `O=C(Nc1ccc(Cl)c(C(F)(F)F)c1)NC1CCc2[nH]c3c(C(=O)NCCOCCO)cccc3c2C1` (configuration not stated), 3364.65 pg/mL.
Same read-out and setting: next, `O=C(Nc1ccc(Cl)c(C(F)(F)F)c1)NC1CCc2[nH]c3cc(C(=O)NCCCO)ccc3c2C1` (configuration not stated): 5030.39 pg/mL.
For `CN1CCN(C(=O)c2cccc3[nH]c4c(c23)CC(NC(=O)Nc2ccc(Cl)c(C(F)(F)F)c2)CC4)CC1` (configuration not stated), the Activity in data set [1] was 3714.66 pg/mL.
`CN1CCN(C(=O)c2ccc3c4c([nH]c3c2)CCC(NC(=O)Nc2ccc(Cl)c(C(F)(F)F)c2)C4)CC1` (configuration not stated): in [1], the Activity was found to be 6552.76 pg/mL.
